“And” between values parts separate entries of the source, which are not always exact repeats. Equal values may be shown once.
Columns and labels:
Format in all cases: in vivo, chicken chicks
Eimeria acervulina = experiment: Cage experiments coccidiosis/chicks, Eimeria acervulina part of the mixed infection; details: for Efficacy against Eimeria acervulina (grade): first symbol of cell; as to Efficacy against Eimeria acervulina (grade): key: 2 = complete action; 1 = weak action; 0 = inactive; D = death
Description: (§1) The efficacy of the compounds according to the invention can be confirmed, for example, in cage experiments using the following experimental arrangement, in which the animals are treated with the respective individual components and with the mixtures of the individual components.
(§2) An active compound-containing feed is prepared in such a way that the required amount of active compound is thoroughly mixed with a nutritionally balanced animal feed, e.g. with the chick feed indicated below.
(§3) 8 to 12 day-old male chicken chicks raised under coccidea-free conditions (e.g. LSL Brinkschulte/Senden) receive the compounds according to the invention (test substances) from 3 days before (day -3) the infection (=a.i.) until 8 (9) days after the infection (=p.i.) with the feed in the concentration indicated in ppm. Three animals are kept in each cage. Per dose, one to a number of groups of this type are employed. Infection is carried out by means of a stomach tube directly into the crop using approximately 100,000 sporulated oocysts of Eimeria acervulina and with in each case approximately 30,000 oocysts of E. maxima and 40,000 sporulated oocysts of E. tenella. These are highly virulent strains. The exact infectious dose is adjusted such that if possible one of three experimentally infected untreated chicks dies due to infection. For the assessment of the efficacy, the following criteria are taken into consideration: weight increase from the start of the experiment to the end of the experiment, death rate due to infection, macroscopic assessment of the faeces with respect to diarrhoea and excretion of blood on days 5 and 7 p.i. (grade 0 to 6), macroscopic grade of the intestinal mucous membrane, in particular of the cecums (grade 0 to 6) and the oocyst excretion and also the proportion (in %) of the oocysts sporulating within 24 hours. The number of oocysts in the faeces was determined with the aid of the McMaster counting chamber (see Engelbrecht and coworkers “Parasitologische Arbeitsmethoden in Medizin und Veterinärmedizin, [Parasitological working methods in medicine and veterinary medicine] Akademie-Verlag, Berlin (1965)). The individual findings are related to the untreated noninfected control groups and an overall grade is calculated (cf. A. Haberkorn (1986), pp. 263 to 270 in Research in Avian Coccidiosis ed L. R. McDougald, L. P. Joyner, P. L. Long Proceedings of the Georgia Coccidiosis Conference Nov, 18-20, 1985 Athens/Ga. USA).
(§4) In the columns “dropping scores”, “lesion score” and “oocyst control”, individual details of the action are given.

[1] = test system: Eimeria acervulina, Eimeria maxima and Eimeria tenella; experiment: Cage experiments coccidiosis/chicks, mixed experimental infection
Description: as §1, §2, §3
In the column “ppm”, the concentration of the active compound employed in the feed is indicated in ppm.
In the column “mortality”, the percentage of the animals which have died is indicated under % and the number of the animals which have died/animals employed in the experiment is indicated under n.
In the column “weight % of not inf. control”, the ratio of the weight of the treated animals to the weight of the noninfected control group is indicated.
as §4
In the column “% efficacy”, the overall rating is assessed; 0% means no action, 100% means complete action.

Eimeria tenella = experiment: Cage experiments coccidiosis/chicks, Eimeria tenella part of the mixed infection; details: for Efficacy against Eimeria tenella (grade): third symbol of cell; as to Efficacy against Eimeria tenella (grade): key: 2 = complete action; 1 = weak action; 0 = inactive; D = death
Description: as §1, §2, §3, §4

Eimeria maxima = experiment: Cage experiments coccidiosis/chicks, Eimeria maxima part of the mixed infection; details: for Efficacy against Eimeria maxima (grade): second symbol of cell; as to Efficacy against Eimeria maxima (grade): key: 2 = complete action; 1 = weak action; 0 = inactive; D = death
Description: as §1, §2, §3, §4

SMILES: Cc1oc(=O)oc1Cn1c(C(F)(F)F)nc2cc(C(F)(F)F)c(Cl)cc21 [Example 19]
- oocyst in % of inf. control ac. (Eimeria acervulina; 5 ppm in feed): >100%
- oocyst in % of inf. control ac. (Eimeria acervulina; 10 ppm in feed): 5%
- oocyst in % of inf. control ac. (Eimeria acervulina; 25 ppm in feed): >100%
- Efficacy against Eimeria acervulina (grade) (Eimeria acervulina; Dose 5 ppm): 0
- Efficacy against Eimeria acervulina (grade) (Eimeria acervulina; Dose 10 ppm): 2
- Efficacy against Eimeria acervulina (grade) (Eimeria acervulina; Dose 25 ppm): 0
- % efficacy tot. ([1]; 5 ppm in feed): 7%
- mortality % ([1]; 5 ppm in feed): 0%
- mortality n (died/employed) ([1]; 5 ppm in feed): 0/3
- oocyst in % of inf. control tot. ([1]; 5 ppm in feed): >100%
- weight % of not inf. control ([1]; 5 ppm in feed): 52%
- dropping scores ([1]; 5 ppm in feed, grade 0 to 6): 4
- lesion score ([1]; 5 ppm in feed, grade 0 to 6): 6
- % efficacy tot. ([1]; 10 ppm in feed): 66%
- mortality % ([1]; 10 ppm in feed): 0%
- mortality n (died/employed) ([1]; 10 ppm in feed): 0/3
- oocyst in % of inf. control tot. ([1]; 10 ppm in feed): 5%
- weight % of not inf. control ([1]; 10 ppm in feed): 75%
- dropping scores ([1]; 10 ppm in feed, grade 0 to 6): 3
- lesion score ([1]; 10 ppm in feed, grade 0 to 6): 4
- % efficacy tot. ([1]; 25 ppm in feed): 7%
- mortality % ([1]; 25 ppm in feed): 0%
- mortality n (died/employed) ([1]; 25 ppm in feed): 0/3
- oocyst in % of inf. control tot. ([1]; 25 ppm in feed): >100%
- weight % of not inf. control ([1]; 25 ppm in feed): 56%
- dropping scores ([1]; 25 ppm in feed, grade 0 to 6): 6
- lesion score ([1]; 25 ppm in feed, grade 0 to 6): 6
- oocyst in % of inf. control ten. (Eimeria tenella; 5 ppm in feed): >100%
- oocyst in % of inf. control ten. (Eimeria tenella; 10 ppm in feed): 5%
- oocyst in % of inf. control ten. (Eimeria tenella; 25 ppm in feed): >100%
- Efficacy against Eimeria tenella (grade) (Eimeria tenella; Dose 5 ppm): 0
- Efficacy against Eimeria tenella (grade) (Eimeria tenella; Dose 10 ppm): 1
- Efficacy against Eimeria tenella (grade) (Eimeria tenella; Dose 25 ppm): 0
- oocyst in % of inf. control max. (Eimeria maxima; 5 ppm in feed): >100%
- oocyst in % of inf. control max. (Eimeria maxima; 10 ppm in feed): 13%
- oocyst in % of inf. control max. (Eimeria maxima; 25 ppm in feed): >100%
- Efficacy against Eimeria maxima (grade) (Eimeria maxima; Dose 5 ppm): 0
- Efficacy against Eimeria maxima (grade) (Eimeria maxima; Dose 10 ppm): 1
- Efficacy against Eimeria maxima (grade) (Eimeria maxima; Dose 25 ppm): 0

SMILES: Cc1oc(=O)oc1Cn1c(C(F)(F)F)nc2c(C(F)(F)F)cc(C(F)(F)F)cc21 [Example 28]
- oocyst in % of inf. control ac. (Eimeria acervulina; 5 ppm in feed): 2%
- oocyst in % of inf. control ac. (Eimeria acervulina; 10 ppm in feed): 0%
- Efficacy against Eimeria acervulina (grade) (Eimeria acervulina; Dose 5 ppm): 2
- Efficacy against Eimeria acervulina (grade) (Eimeria acervulina; Dose 10 ppm): 2
- % efficacy tot. ([1]; 5 ppm in feed): 75%
- mortality % ([1]; 5 ppm in feed): 0%
- mortality n (died/employed) ([1]; 5 ppm in feed): 0/3
- oocyst in % of inf. control tot. ([1]; 5 ppm in feed): 1%
- weight % of not inf. control ([1]; 5 ppm in feed): 85%
- dropping scores ([1]; 5 ppm in feed, grade 0 to 6): 6
- lesion score ([1]; 5 ppm in feed, grade 0 to 6): 1
- % efficacy tot. ([1]; 10 ppm in feed): 91%
- mortality % ([1]; 10 ppm in feed): 0%
- mortality n (died/employed) ([1]; 10 ppm in feed): 0/3
- oocyst in % of inf. control tot. ([1]; 10 ppm in feed): 0%
- weight % of not inf. control ([1]; 10 ppm in feed): 82%
- dropping scores ([1]; 10 ppm in feed, grade 0 to 6): 0
- lesion score ([1]; 10 ppm in feed, grade 0 to 6): 0
- mortality % ([1]; 25 ppm in feed): 100%
- mortality n (died/employed) ([1]; 25 ppm in feed): 3/3
- dropping scores ([1]; 25 ppm in feed, grade 0 to 6): 0
- oocyst in % of inf. control ten. (Eimeria tenella; 5 ppm in feed): 0%
- oocyst in % of inf. control ten. (Eimeria tenella; 10 ppm in feed): 0%
- Efficacy against Eimeria tenella (grade) (Eimeria tenella; Dose 5 ppm): 2
- Efficacy against Eimeria tenella (grade) (Eimeria tenella; Dose 10 ppm): 2
- oocyst in % of inf. control max. (Eimeria maxima; 5 ppm in feed): 2%
- oocyst in % of inf. control max. (Eimeria maxima; 10 ppm in feed): 0%
- Efficacy against Eimeria maxima (grade) (Eimeria maxima; Dose 5 ppm): 2
- Efficacy against Eimeria maxima (grade) (Eimeria maxima; Dose 10 ppm): 2

SMILES: CO[C@@H]1[C@@H](OC)[C@H](C)[C@@](O)(CC(=O)O)O[C@H]1[C@H](C)[C@H]1O[C@@]2(CC[C@@](C)([C@H]3CC[C@@](C)([C@@H]4O[C@@H]([C@H]5O[C@](C)(O)[C@H](C)C[C@@H]5C)C[C@@H]4O[C@@H]4C[C@H](OC)[C@@H](OC)[C@H](C)O4)O3)O2)C[C@H](O)[C@H]1C [MAD, Maduramicin, reference compound]
- oocyst in % of inf. control ac. (Eimeria acervulina; 1 ppm in feed): 60% and >100%
- oocyst in % of inf. control ac. (Eimeria acervulina; MAD 1 ppm): 39 % of inf. control
- oocyst in % of inf. control ac. (Eimeria acervulina; MAD 2 ppm): 27 % of inf. control
- oocyst in % of inf. control ac. (Eimeria acervulina; MAD 3 ppm): 11 % of inf. control
- % efficacy tot. ([1]; 1 ppm in feed): 38%
- mortality % ([1]; 1 ppm in feed): 0%
- mortality n (died/employed) ([1]; 1 ppm in feed): 0/3
- weight % of not inf. control ([1]; 1 ppm in feed): 77% and 56%
- lesion score ([1]; 1 ppm in feed, grade 0 to 6): 5 and 6
- % efficacy tot. ([1]; 2 ppm in feed): 55% and 32%
- mortality % ([1]; 2 ppm in feed): 0%
- mortality n (died/employed) ([1]; 2 ppm in feed): 0/3
- weight % of not inf. control ([1]; 2 ppm in feed): 74% and 60%
- lesion score ([1]; 2 ppm in feed, grade 0 to 6): 3 and 6
- % efficacy tot. ([1]; 3 ppm in feed): 61% and 93%
- mortality n (died/employed) ([1]; 3 ppm in feed): 0/3 and 1/3
- weight % of not inf. control ([1]; 3 ppm in feed): 76% and 92%
- dropping scores ([1]; 3 ppm in feed, grade 0 to 6): 0
- lesion score ([1]; 3 ppm in feed, grade 0 to 6): 1
- % efficay tot. ([1]; MAD 1 ppm): 7%
- dropping scores ([1]; MAD 1 ppm): 6
- lesion score ([1]; MAD 1 ppm): 6
- mortality % ([1]; MAD 1 ppm): 0%
- mortality n ([1]; MAD 1 ppm): 0/3
- oocyst in % of inf. control tot. ([1]; MAD 1 ppm): 29 % of inf. control
- weight % of not inf. control ([1]; MAD 1 ppm): 59 % of not inf. control
- % efficay tot. ([1]; MAD 2 ppm): 17%
- dropping scores ([1]; MAD 2 ppm): 6
- lesion score ([1]; MAD 2 ppm): 5
- mortality % ([1]; MAD 2 ppm): 0%
- mortality n ([1]; MAD 2 ppm): 0/3
- oocyst in % of inf. control tot. ([1]; MAD 2 ppm): 48 % of inf. control
- weight % of not inf. control ([1]; MAD 2 ppm): 63 % of not inf. control
- % efficay tot. ([1]; MAD 3 ppm): 60%
- dropping scores ([1]; MAD 3 ppm): 6
- lesion score ([1]; MAD 3 ppm): 2.7
- mortality % ([1]; MAD 3 ppm): 33%
- mortality n ([1]; MAD 3 ppm): 0/3
- oocyst in % of inf. control tot. ([1]; MAD 3 ppm): 9 % of inf. control
- weight % of not inf. control ([1]; MAD 3 ppm): 90 % of not inf. control
- oocyst in % of inf. control ten. (Eimeria tenella; MAD 1 ppm): 56 % of inf. control
- oocyst in % of inf. control ten. (Eimeria tenella; MAD 2 ppm): 82 % of inf. control
- oocyst in % of inf. control ten. (Eimeria tenella; MAD 3 ppm): 6 % of inf. control
- oocyst in % of inf. control max. (Eimeria maxima; 3 ppm in feed): 0%
- oocyst in % of inf. control max. (Eimeria maxima; MAD 1 ppm): 86 % of inf. control
- oocyst in % of inf. control max. (Eimeria maxima; MAD 2 ppm): >100 % of inf. control
- oocyst in % of inf. control max. (Eimeria maxima; MAD 3 ppm): 14 % of inf. control

Source: patent publication US6569881B1, “Substituted benzimidazole, the production thereof and the use thereof as means against parasitic protozoa” (Bayer Aktiengesellschaft, priority 1999, dated 2003)
